The values that follow come from patent US11053235B2, “Substituted 1,4-dihydropyrimidines for the treatment of HBV infection or HBV-induced diseases” (Janssen Sciences Ireland Unlimited Company, priority 2018, dated 2021).

Data set [1] has as its system HBV. The data set can be described thus: Anti-viral assay in HepG2.2.15 cells: HBV inhibitory activity (HBV DNA in culture medium by q-PCR). In kind it is cell-based. To be noted: Hepatitis B virus, HepG2.2.15, 144 h, HepG2.2.15 cells, 6 days treatment, HBV DNA in culture medium by q-PCR, highest concentration 10 uM; read-out: EC50. Put shortly:
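HBV DNA released into the medium was measured by q-PCR after 6-day compound exposure of HepG2.2.15 cells (40,000/well, 2% FBS, one mid-course medium change). Eight 3-fold dilutions, highest 10 uM; EC50 derived by curve fitting.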

The nature of data set [2]: Cytotoxicity determination in HepG2.2.15 cells (CCK-8). In kind it is cell-based. To be noted: human, 6 days treatment, CCK-8, highest concentration 100 uM. In short, it runs like this: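 CC50 derived from CCK-8 absorbance (450 nm, 630 nm reference) after 2.5 h incubation at 37 °C. Before that, HepG2.2.15 cells (5,000/well, 2% FBS) received an 8-point, 3-fold compound series topping at 100 uM for 6 days, with one mid-treatment medium change.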

As to `COC(=O)C1=C(C2CCN(c3ncc(C)c(C(=O)O)n3)CC2)NC(c2nccs2)=NC1c1ccc(F)c(F)c1C` (single isomer, unassigned) [II-94-B, 2-(4-(6-(3,4-Difluoro-2-methylphenyl)-5-(methoxycarbonyl)-2-(thiazol-2-yl)-3,6-dihydropyrimidin-4-yl)piperidin-1-yl)-5-methylpyrimidine-4-carboxylic Acid], in data set [1], the EC50 is 0.0061 µM. In data set [2], this molecule returned a CC50 at 6 days of 26.8 µM.

For the molecule `COC(=O)C1=C(C2CCN(c3ncc(C(=O)O)c(C)n3)CC2)NC(c2nccs2)=NC1c1ccc(F)cc1Cl` (single isomer, unassigned) [II-16-B, 2-(4-(6-(2-Chloro-4-fluorophenyl)-5-(methoxycarbonyl)-2-(thiazol-2-yl)-3,6-dihydropyrimidin-4-yl)piperidin-1-yl)-4-methylpyrimidine-5-carboxylic Acid], the EC50 in data set [1] came out at 0.0069 µM. It took 7.48 µM to reach half-maximal cytotoxicity in data set [2] (CC50 at 6 days).

Consider `COC(=O)C1=C([C@H]2CC[C@H](c3nc(CC(=O)O)co3)CC2)NC(c2nccs2)=NC1c1ccc(F)c(F)c1Cl` (single isomer, unassigned) [Compound I-16-B, (trans)-2-(2-(4-(6-(2-Chloro-3,4-difluorophenyl)-5-(methoxycarbonyl)-2-(thiazol-2-yl)-3,6-dihydropyrimidin-4-yl)cyclohexyl)oxazol-4-yl)acetic Acid], for which the EC50 in data set [1] worked out at 0.0048 µM. The molecule also returned a CC50 at 6 days in data set [2] of 12.4 µM.

`COC(=O)C1=C([C@H]2CC[C@H](c3ncc(CC(=O)O)cn3)CC2)NC(c2nccs2)=NC1c1ccc(F)c(F)c1Cl` (single isomer, unassigned) [Compound I-49-A, 2-(2-((trans)-4-(6-(2-chloro-3,4-difluorophenyl)-5-(methoxycarbonyl)-2-(thiazol-2-yl)-3,6-dihydropyrimidin-4-yl)cyclohexyl)pyrimidin-5-yl)acetic Acid]: the EC50 in data set [1] was 0.011 µM. In addition, the midpoint of cytotoxicity in data set [2], the CC50 at 6 days, lay at 24.7 µM.

Turning to `COC(=O)C1=C([C@H]2CC[C@H](c3ncc(CC(=O)O)cn3)CC2)NC(c2nccs2)=NC1c1ccc(F)cc1Cl` (single isomer, unassigned) [Compound I-50-A, 2-(2-((trans)-4-(6-(2-chloro-4-fluorophenyl)-5-(methoxycarbonyl)-2-(thiazol-2-yl)-3,6-dihydropyrimidin-4-yl)cyclohexyl)pyrimidin-5-yl)acetic Acid], the EC50 in data set [1] was found to be 0.011 µM. For the same molecule, the CC50 at 6 days in data set [2] came out at 16.4 µM.

On to `COC(=O)C1=C([C@H]2CC[C@H](c3nc(C(=O)O)co3)CC2)NC(c2nccs2)=NC1c1cccc(F)c1C` (single isomer, unassigned) [Compound I-3-D, trans-2-(4-(6-(3-Fluoro-2-methylphenyl)-5-(methoxycarbonyl)-2-(thiazol-2-yl)-3,6-dihydropyrimidin-4-yl)cyclohexyl)oxazole-4-carboxylic Acid], for which the EC50 in data set [1] is 0.14 µM. In data set [2], this molecule yielded a CC50 at 6 days of 14.2 µM.

Turning to `COC(=O)C1=C(C2CCN(c3ncc(C(=O)O)o3)CC2)NC(c2nccs2)=NC1c1ccc(F)c(F)c1Cl` (single isomer, unassigned) [II-25-B, 2-(4-(6-(2-Chloro-3,4-difluorophenyl)-5-(methoxycarbonyl)-2-(thiazol-2-yl)-3,6-dihydropyrimidin-4-yl)piperidin-1-yl)oxazole-5-carboxylic Acid], in data set [1], the EC50 turned out to be 0.054 µM. For the same molecule, the midpoint of cytotoxicity in data set [2], the CC50 at 6 days, lay at 18.1 µM.

For `COC(=O)C1=C(C2CCN(c3ncc(C)c(C(=O)O)n3)CC2)NC(c2nccs2)=NC1c1ccc(F)cc1Cl` (single isomer, unassigned) [II-14-A, 2-(4-(6-(2-Chloro-4-fluorophenyl)-5-(methoxycarbonyl)-2-(thiazol-2-yl)-3,6-dihydropyrimidin-4-yl)piperidin-1-yl)-5-methylpyrimidine-4-carboxylic Acid], in data set [1], the EC50 amounted to 0.0081 µM. In addition, the CC50 at 6 days in data set [2] was determined as 32.1 µM.

As for `CCOC(=O)C1=C(C2CCN(c3nc(C)c(C)c(C(=O)O)n3)CC2)NC(c2nccs2)=NC1c1ccc(F)c(F)c1Cl` (single isomer, unassigned) [II-56-B, 2-(4-(6-(2-Chloro-3,4-difluorophenyl)-5-(ethoxycarbonyl)-2-(thiazol-2-yl)-3,6-dihydropyrimidin-4-yl)piperidin-1-yl)-5,6-dimethylpyrimidine-4-carboxylic Acid], the EC50 in data set [1] is 0.022 µM. Besides, in data set [2], it took 5.54 µM to reach half-maximal cytotoxicity (CC50 at 6 days).

Turning to `CCOC(=O)C1=C(C2CCN(c3nc(C(=O)O)cs3)CC2)NC(c2nccs2)=NC1c1ccc(F)c(F)c1Cl` (single isomer, unassigned) [II-80-B, 2-(4-(6-(2-Chloro-3,4-difluorophenyl)-5-(ethoxycarbonyl)-2-(thiazol-2-yl)-3,6-dihydropyrimidin-4-yl)piperidin-1-yl)thiazole-4-carboxylic Acid], in data set [1], the EC50 was 0.045 µM. Also, the CC50 at 6 days in data set [2] is 10.2 µM.

For `CCOC(=O)C1=C(C2CCN(c3ncc(CC(=O)O)cn3)CC2)NC(c2nccs2)=NC1c1cccc(F)c1Cl` (single isomer, unassigned) [II-23-B, 2-(2-(4-(6-(2-Chloro-3-fluorophenyl)-5-(ethoxycarbonyl)-2-(thiazol-2-yl)-3,6-dihydropyrimidin-4-yl)piperidin-1-yl)pyrimidin-5-yl)acetic Acid], the EC50 in data set [1] was < 0.0046 µM. In addition, in data set [2], the midpoint of cytotoxicity, the CC50 at 6 days, lay at 3.88 µM.

Consider `CCOC(=O)C1=C([C@H]2CC[C@H](c3nc(C(=O)O)co3)CC2)NC(c2nccs2)=NC1c1cccc(F)c1C` (single isomer, unassigned) [Compound I-11-B, (trans)-2-(4-(5-(Ethoxycarbonyl)-6-(3-fluoro-2-methylphenyl)-2-(thiazol-2-yl)-3,6-dihydropyrimidin-4-yl)cyclohexyl)oxazole-4-carboxylic Acid], for which the EC50 in data set [1] was 0.037 µM. In data set [2], this molecule yielded a CC50 at 6 days of 12.1 µM.

Take `CCOC(=O)C1=C(C2CCN(c3cc(C(=O)O)ncn3)CC2)NC(c2nccs2)=NC1c1ccc(F)c(F)c1Cl` (single isomer, unassigned) [II-54-B, 6-(4-(6-(2-Chloro-3,4-difluorophenyl)-5-(ethoxycarbonyl)-2-(thiazol-2-yl)-3,6-dihydropyrimidin-4-yl)piperidin-1-yl)pyrimidine-4-carboxylic Acid]: in data set [1], the EC50 stood at 0.019 µM. In addition, it took 10.3 µM to reach half-maximal cytotoxicity in data set [2] (CC50 at 6 days).

Consider `COC(=O)C1=C(C2CCN(c3ncc([C@]4(O)C[C@@H](C(=O)O)C4)cn3)CC2)NC(c2nccs2)=NC1c1ccc(F)c(F)c1Cl` (single isomer, unassigned) [II-24-B, (cis)-3-(2-(4-(6-(2-chloro-3,4-difluorophenyl)-5-(methoxycarbonyl)-2-(thiazol-2-yl)-3,6-dihydropyrimidin-4-yl)piperidin-1-yl)pyrimidin-5-yl)-3-hydroxycyclobutanecarboxylic Acid], for which the EC50 in data set [1] is < 0.0046 µM. In data set [2], the CC50 at 6 days stood at 11 µM.

With `CCOC(=O)C1=C(C2CCN(c3cnc(C)c(C(=O)O)n3)CC2)NC(c2nccs2)=NC1c1ccc(F)c(F)c1Cl` (single isomer, unassigned) [II-48-B, 6-(4-(6-(2-chloro-3,4-difluorophenyl)-5-(ethoxycarbonyl)-2-(thiazol-2-yl)-3,6-dihydropyrimidin-4-yl)piperidin-1-yl)-3-methylpyrazine-2-carboxylic Acid], the EC50 in data set [1] worked out at 0.079 µM. In addition, it took 12.9 µM to reach half-maximal cytotoxicity in data set [2] (CC50 at 6 days).

Consider `COC(=O)C1=C([C@H]2CC[C@H](c3ncc(C)c(C(=O)O)n3)CC2)NC(c2nccs2)=NC1c1ccc(F)c(F)c1Br` (single isomer, unassigned) [Compound I-47-D, 2-((Trans)-4-(6-(2-bromo-3,4-difluorophenyl)-5-(methoxycarbonyl)-2-(thiazol-2-yl)-3,6-dihydropyrimidin-4-yl)cyclohexyl)-5-methylpyrimidine-4-carboxylic Acid], for which, in data set [1], the EC50 is 0.0059 µM. In data set [2], this molecule gave a CC50 at 6 days of 19.3 µM.

In the case of `CCOC(=O)C1=C(C2CCN(c3cc(C(=O)O)c(C(F)(F)F)cn3)CC2)NC(c2nccs2)=NC1c1ccc(F)c(F)c1Cl` (single isomer, unassigned) [II-39-B, 2-(4-(6-(2-Chloro-3,4-difluorophenyl)-5-(ethoxycarbonyl)-2-(thiazol-2-yl)-3,6-dihydropyrimidin-4-yl)piperidin-1-yl)-5-(trifluoromethyl)isonicotinic Acid], the EC50 in data set [1] was 0.014 µM. Also, in data set [2], the CC50 at 6 days amounted to 5.38 µM.

In the case of `COC(=O)C1=C(C2CCN(c3ncc(Cl)c(C(=O)O)n3)CC2)NC(c2nccs2)=NC1c1ccc(F)c(F)c1Cl` (single isomer, unassigned) [II-26-B, 5-Chloro-2-(4-(6-(2-chloro-3,4-difluorophenyl)-5-(methoxycarbonyl)-2-(thiazol-2-yl)-3,6-dihydropyrimidin-4-yl)piperidin-1-yl)pyrimidine-4-carboxylic Acid], the EC50 in data set [1] worked out at 0.045 µM. This molecule also came in with a CC50 at 6 days in data set [2] of 11.1 µM.

Consider `COC(=O)C1=C(C2CN(C(=O)c3cnoc3C)C2)NC(c2nccs2)=NC1c1ccc(F)cc1Cl` (single isomer, unassigned) [II-88-B, methyl 4-(2-chloro-4-fluorophenyl)-6-(1-(5-methylisoxazole-4-carbonyl)azetidin-3-yl)-2-(thiazol-2-yl)-1,4-dihydropyrimidine-5-carboxylate], for which the EC50 in data set [1] worked out at 2.05 µM. In data set [2], this molecule registered a CC50 at 6 days of 9.96 µM.

As to `COC(=O)C1=C(C2CCN(c3cc(C(=O)O)c(N(C)C)cn3)CC2)NC(c2nccs2)=NC1c1ccc(F)c(F)c1Cl` (single isomer, unassigned) [II-93-B, 2-(4-(6-(2-chloro-3,4-difluorophenyl)-5-(methoxycarbonyl)-2-(thiazol-2-yl)-3,6-dihydropyrimidin-4-yl)piperidin-1-yl)-5-(dimethylamino)isonicotinic Acid], the EC50 in data set [1] came to 0.0066 µM. The cytotoxic concentration (CC50) at 6 days in data set [2] is 28.9 µM.

By EC50 is commonly meant the concentration that produces a half-maximal response. Usually CC50 stands for the concentration giving 50% cytotoxicity. Higher therefore signals better tolerance by the cells.
